Patent US20210145772A1, “CAP[…] USE IN TREATING ACRAL LICK GRANULOMA” (Centrexion Therapeutics Corporation, priority 2014, published 2021)
“And” between values parts separate entries of the source, which are not always exact repeats. Equal entries are not always repeated.

Experiments:
Format in all cases: in vivo, dog (canine)
acral lick granuloma [1] = test: Client Specific Outcome Measure (CSOM), owner-scored, in dogs with acral lick granuloma after subcutaneous injection
Description: A clinical study was performed to evaluate the effect of injectable capsaicin in treating acral lick granuloma in canines. A total of six dogs suffering from acral lick granuloma were treated using injectable capsaicin and evaluated. Experimental procedures are described in Part I below.
(§1) Six dogs suffering from acral lick granuloma were treated using injectable capsaicin and evaluated.
At a Screening visit, the index lesion was examined. The diagnosis of the index granuloma was made based on characteristics of the lesion and history of licking. Veterinary personnel reviewed with each dog owner the concept and implementation of an Owner-derived efficacy assessment, the Client Specific Outcome Measure (CSOM, based loosely on the CSOM developed for use with osteoarthritis (Gingerich D, and Strobel J. in “Use of client-specific outcome measures to assess treatment effects in geriatric, arthritic dogs: Controlled clinical evaluation of a nutraceutical,” Vet. Ther. (2003) vol. 4, pages 56-66)), to assess the severity and progression of licking behavior associated with the acral lick granuloma. Up to three activities were identified and scored relative to their state prior to the acral lick granuloma (1-no problem, 2-mildly problematic, 3-moderately problematic, 4-severely problematic, 5-impossible). The CSOM assessment was completed at Screening Day (i.e., seven days before administration of capsaicin, also referred to as Day −7), Day 0, Day 14 (±2), and Day 28 (±3) until study termination.
(§2) After the screening visit, the dog returned to the site on Day 0 for injection with Study Drug. As a general procedure, dogs were anesthetized using a short-acting anesthetic protocol before injection of the Study Drug. If propofol was used, it was used for induction prior to gas anesthesia but not as a drip to maintain anesthesia. The area to be injected with Study Drug was prepared using site disinfection procedures that are routinely used at veterinary hospital.
(§3) The Study Drug was trans-capsaicin in a solution of polyethylene glycol 300 (PEG 300) and water for injection. The Study Drug was prepared by diluting (i) a solution of PEG 300 containing trans-capsaicin at a concentration of 2 mg/mL (hereinafter “Solution A”) with (ii) sterile water for injection. Solution A was diluted with a volume of sterile water for injection (WFI) in an amount equal to 4 to 5-fold to produce the Study Drug.
(§4) Study Drug was administered to the dog by subcutaneous injection at several locations under the index acral lick granuloma. The goal of the injection was to infiltrate the Study Drug at the junction between the granuloma and healthy tissue throughout the area of the lesion. The dose of trans-capsaicin per lesion to be administered was approximately 1.5 μg of trans-capsaicin per mm^2 of lesion. Each lesion to be injected was measured (mm) for long axis (length) and short axis (width). The approximate surface area was calculated based on an elliptical shape. Based on the calculated lesion areas, the calculated dose of trans-capsaicin per lesion ranged from <0.10 mg to 2.65 mg of trans-capsaicin. Dog reactions during and immediately after the injection procedure were recorded in the study records. Injections of Study Drug were performed using a 22 gauge needle.
As noted above, the severity of licking behavior caused by the acral lick granuloma was measured by the owner using a modification of a previously published system (Gingerich and Strobel 2003 noted above). During Screening, dog owners were interviewed by veterinary personnel trained in CSOM assessments (e.g., Study Coordinator) to identify one to three activities that have changed as a result of the acral lick granuloma. Activities focused on the use of the limb(s) with the index lesion and on behavioral responses. For example, excessive licking of the granuloma would be a behavioral response. […]

acral lick granuloma [2] = test: Lesion size: measured long and short axis, surface area approximated as an ellipse
Description: as §1, §2, §3, §4
(§5) Physical examinations of the dog including the injection site observation were conducted. General and dermatologic exams, including a description, measurements (dimensions), and digital photograph of the index lesion were collected.
(§6) An illustration of the lesion(s) from each dog prior to injection with Study Drug are provided in FIG. 1, along with illustrations of the lesions from each dog at Day 14 and separately at Day 28 of the study. FIG. 2 provides illustrations of the lesions from each dog prior to injection of Study Drug, at Day 14 of the study, and at Day 28 of the study, where the lesion is traced for Adobe Acrobat IX determination of lesion area.

acral lick granuloma [3] = test: Lesion surface area from traced lesion photographs (Adobe Acrobat measurement tool)
Excerpt: FIG. 2 provides illustrations of the lesion(s) from each dog prior to injection of Study Drug, at Day 14, and at Day 28 of the study, where the lesion is traced for Adobe Acrobat IX determination of lesion area, as further described in Example 1 herein.
as §2, §3, §4, §5, §6

[4] = individual lesion of individual dog

SMILES: COc1cc(CNC(=O)CCCC/C=C/C(C)C)ccc1O [Study Drug, trans-capsaicin]
- CSOM Day 14 (sum of identified activities) (acral lick granuloma [1]; average of six dogs): 4.8
- CSOM Day 28 (sum of identified activities) (acral lick granuloma [1]; average of six dogs): 6.3
- CSOM Delta Day 14-baseline (acral lick granuloma [1]; average of six dogs): −3.0
- CSOM Delta Day 28-baseline (acral lick granuloma [1]; average of six dogs): −1.5
- CSOM Percent Change to Day 14 (acral lick granuloma [1]; average of six dogs): −41%
- CSOM Percent Change to Day 28 (acral lick granuloma [1]; average of six dogs): −26%
- benefit to dogs suffering from acral lick granuloma as indicated by CSOM results (acral lick granuloma [1]; conclusion in words): provided a benefit
- CSOM Delta Day 14-baseline (acral lick granuloma [1]; individual dog): −1 (2×) and −2 and −6 and −4 (2×)
- CSOM Delta Day 28-baseline (acral lick granuloma [1]; individual dog): −1 and 2 (2×) and −4 (3×)
- CSOM Day 14 (sum of identified activities) (acral lick granuloma [1]; individual dog, Day 14 after s.c. injection, approx. 1.5 μg trans-capsaicin per mm^2 of lesion): 1 and 7 and 9 and 6 and 2 and 4
- CSOM Day 28 (sum of identified activities) (acral lick granuloma [1]; individual dog, Day 28 after s.c. injection): 1 and 11 and 12 and 8 and 2 and 4
- CSOM Percent Change to Day 14 (acral lick granuloma [1]; individual dog, vs baseline): −50% (3×) and −22% and −10% and −67%
- CSOM Percent Change to Day 28 (acral lick granuloma [1]; individual dog, vs baseline): −50% (2×) and 22% and 20% and −33% and −67%
- average reduction in CSOM at Day 14 compared with baseline (acral lick granuloma [1]; six dogs): 41%
- average reduction in CSOM at Day 28 compared with baseline (acral lick granuloma [1]; six dogs): 26%
- Lesion surface area (ellipse) Delta Day 14-baseline (acral lick granuloma [2]; average of 13 lesions): 49
- Lesion surface area (ellipse) Delta Day 28-baseline (acral lick granuloma [2]; average of 13 lesions): 200
- Lesion surface area (ellipse) Percent Change to Day 14 (acral lick granuloma [2]; average of 13 lesions): 6%
- Lesion surface area (ellipse) Percent Change to Day 28 (acral lick granuloma [2]; average of 13 lesions): 15%
- Lesion surface area Day 14 (approximation of an ellipse) (acral lick granuloma [2]; average of 13 lesions): 533 sq mm
- Lesion surface area Day 28 (approximation of an ellipse) (acral lick granuloma [2]; average of 13 lesions): 684 sq mm
- Lesion surface area (ellipse) Delta Day 14-baseline (acral lick granuloma [2]; individual lesion): −55 and 291 and 0 and −63 and 163 and 329 and −188 and −115 and 57 and −48 and 263 and 55 and −51
- Lesion surface area (ellipse) Delta Day 28-baseline (acral lick granuloma [2]; individual lesion): −43 and 134 and −20 and −82 and 734 and 1250 and −75 and 151 and 148 and −7 and 393 and 55 and −39
- Lesion surface area (ellipse) Percent Change to Day 14 (acral lick granuloma [2]; individual lesion): −100% and 285% and 0% and −76% and 16% and 62% and −47% and −19% and 20% and −14% and 15% and 5% and −65%
- Lesion surface area (ellipse) Percent Change to Day 28 (acral lick granuloma [2]; individual lesion): −79% and 131% and −100% (2×) and 71% and 235% and −18% and 25% and 54% and −2% and 22% and 5% and −50%
- Lesion surface area Day 14 (approximation of an ellipse) (acral lick granuloma [2]; individual lesion): 0 sq mm and 393 sq mm and 20 sq mm (2×) and 1195 sq mm and 862 sq mm and 216 sq mm and 483 sq mm and 334 sq mm and 292 sq mm and 2030 sq mm and 1060 sq mm and 27 sq mm
- Lesion surface area Day 28 (approximation of an ellipse) (acral lick granuloma [2]; individual lesion): 12 sq mm and 236 sq mm and 0 sq mm (2×) and 1766 sq mm and 1782 sq mm and 329 sq mm and 749 sq mm and 425 sq mm and 333 sq mm and 2160 sq mm and 1060 sq mm and 39 sq mm
- Lesion size Day 14-long axis (acral lick granuloma [2]; [4]): 0 mm and 25 mm and 5 mm (2×) and 65.3 mm and 46.5 mm and 18.2 mm and 39.7 mm and 29.7 mm and 25.3 mm and 55 mm and 45 mm and 7 mm
- Lesion size Day 14-short axis (acral lick granuloma [2]; [4]): 0 mm and 20 mm and 5 mm (3×) and 23.3 mm and 23.6 mm and 15.1 mm and 15.5 mm and 14.3 mm and 14.7 mm and 47 mm and 30 mm
- Lesion size Day 28-long axis (acral lick granuloma [2]; [4]): 5 mm and 20 mm and 0 mm (2×) and 88.2 mm and 65.2 mm and 23.3 mm and 46.1 mm and 31.1 mm and 20.5 mm and 55 mm and 45 mm and 10 mm
- Lesion size Day 28-short axis (acral lick granuloma [2]; [4]): 3 mm and 15 mm and 0 mm (2×) and 25.5 mm and 34.8 mm and 18 mm and 20.7 mm (2×) and 17.4 mm and 50 mm and 30 mm and 5 mm
- Lesion surface area (Adobe Acrobat) Delta Day 14-baseline (acral lick granuloma [3]; average of lesions): −91
- Lesion surface area (Adobe Acrobat) Delta Day 28-baseline (acral lick granuloma [3]; average of lesions): 3
- Lesion surface area (Adobe Acrobat) Percent Change Day 14 (acral lick granuloma [3]; average of lesions): −8%
- Lesion surface area (Adobe Acrobat) Percent Change Day 28 (acral lick granuloma [3]; average of lesions): 7%
- Total Size of Lesion at Day 14 (Adobe Acrobat XI measurement tool) (acral lick granuloma [3]; average of lesions): 462 sq mm
- Total Size of Lesion at Day 28 (Adobe Acrobat XI measurement tool) (acral lick granuloma [3]; average of lesions): 557 sq mm
- Lesion surface area (Adobe Acrobat) Delta Day 14-baseline (acral lick granuloma [3]; individual lesion): −4 and −924 and 37 and −146 and 25 and 282 and 290 and −230 and 106 and −103 and 81 and −503
- Lesion surface area (Adobe Acrobat) Delta Day 28-baseline (acral lick granuloma [3]; individual lesion): −62 and −924 and 76 and −260 and −136 and 594 and 1062 and −216 and 247 and −48 and 146 and −441
- Lesion surface area (Adobe Acrobat) Percent Change Day 14 (acral lick granuloma [3]; individual lesion): −1% and −100% and 19% and −56% and 18% and 29% and 78% and −73% and 22% and −25% and 39% and −42%
- Lesion surface area (Adobe Acrobat) Percent Change Day 28 (acral lick granuloma [3]; individual lesion): −11% and −100% (3×) and 39% and 61% and 287% and −68% and 52% and −12% and 70% and −37%
- Total Size of Lesion at Day 14 (Adobe Acrobat XI measurement tool) (acral lick granuloma [3]; individual lesion): 568 sq mm and 0 sq mm and 232 sq mm and 114 sq mm and 161 sq mm and 1252 sq mm and 660 sq mm and 86 sq mm and 579 sq mm and 303 sq mm and 290 sq mm and 704 sq mm
- Total Size of Lesion at Day 28 (Adobe Acrobat XI measurement tool) (acral lick granuloma [3]; individual lesion): 509 sq mm and 0 sq mm (3×) and 271 sq mm and 1564 sq mm and 1432 sq mm and 100 sq mm and 720 sq mm and 358 sq mm and 355 sq mm and 766 sq mm
